Measured values taken from BindingDB's records for doi:10.1021/jm070521y (Wyeth Research, 2007).

Tests used:
[1] = molecular target: T1, 5-hydroxytryptamine receptor 6 (Homo sapiens, UniProt P50406); test: Radioligand Labeled Binding Assay and cAMP Production; conditions: pH 7.4; 22 °C
Protocol: (§1) IC50 values for each test compound were determined from nonlinear regression analysis of data collected from ligand binding experiments. The inhibition constant (Ki) was calculated from IC50 value by the Cheng and Prusoff equation.

[2] = molecular target: T1, 5-hydroxytryptamine receptor 6; test: Radioligand Labeled Binding Assay; conditions: pH 7.4; 22 °C
Protocol: as §1

T1 sequence (P50406 whole entry): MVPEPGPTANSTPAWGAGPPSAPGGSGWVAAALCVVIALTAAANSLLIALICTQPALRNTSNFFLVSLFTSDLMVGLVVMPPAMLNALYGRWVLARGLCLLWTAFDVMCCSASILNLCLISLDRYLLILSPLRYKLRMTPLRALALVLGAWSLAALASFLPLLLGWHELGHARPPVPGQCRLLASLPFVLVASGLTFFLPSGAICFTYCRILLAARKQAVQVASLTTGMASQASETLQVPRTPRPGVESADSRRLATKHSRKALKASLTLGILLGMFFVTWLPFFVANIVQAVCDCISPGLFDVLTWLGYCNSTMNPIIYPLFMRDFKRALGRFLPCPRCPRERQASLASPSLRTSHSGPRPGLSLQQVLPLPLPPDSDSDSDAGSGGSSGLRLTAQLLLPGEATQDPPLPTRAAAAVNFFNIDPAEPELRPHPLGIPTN

COc1ccc(S(=O)(=O)n2cc(CCN)c3ccccc32)cc1OC [2-{1-[(3,4-dimethoxybenzene)sulfonyl]-1H-indol-3-yl}ethan-1-amine]
EC50 [1]: 17.5 nM

NC(N)=NN=Cc1c[nH]c2ccc(Br)cc12 [3-[(E)-[(5-bromo-1H-indol-3-yl)methylidene]amino]guanidine]
Ki [2]: 25 nM

CC(=NNC(=N)N)c1cn(S(=O)(=O)c2ccccc2)c2ccccc12 [3-[(E)-{1-[1-(benzenesulfonyl)-1H-indol-3-yl]ethylidene}amino]guanidine]
Ki [2]: 8 nM

Cc1nc(N)sc1S(=O)(=O)n1cc(CCN)c2ccccc21 [5-{[3-(2-aminoethyl)-1H-indole-1-]sulfonyl}-4-methyl-1,3-thiazol-2-amine]
EC50 [1]: 9.6 nM | Ki [1]: 10 nM
